Consider one compound from paper PMC8773213, “In Vitro Anticancer Activity and Mechanism of Action of an Aziridinyl Galactopyranoside” (Biomedicines, 2021).

Where two headings read alike, the source gives them in different places.

Data set [1] deals with HL-60 (Human acute promyelocytic leukemia cells). Briefly: Resazurin cell viability assay, HL-60. It counts as cell-based. Particulars: 72 h, read-out: IC50 (Mean ± SEM, µM), HL-60. On the procedure:
(§1) Exponentially growing cells were seeded in 96-well plates and allowed to attach and grow for 24 h. The cells were then treated with increasing concentrations of the tested drugs. At the end of the treatment period, cell viability was measured with the MTT assay or the resazurin assay, two widely used techniques.
(§2) The resazurin assay is a redox-based colorimetric/fluorometric technique based on the ability of viable cells to reduce the blue compound resazurin into the pink, fluorescent and soluble product resorufin. The amount of resorufin produced is generally proportional to the number of living cells. In this assay, 24 h after seeding, cells were exposed to the tested drugs for 72 h. Then 100 μL resazurin in medium was added to each well (final concentration of 10 μg/mL) and, one hour later the fluorescence intensity was measured at 530/590 nm (excitation/emission) using a fluorescence microplate reader.
(§3) In both assays, cell viability was expressed as percentage compared to untreated cells. Results were expressed as the means ± standard error of the mean (SEM). All data are from at least three independent experiments.

Data set [2] has as its system UV4 and AA8 cells. The experiment in a line: Clonogenic survival assay. It counts as cell-based, Chinese hamster. Particulars: 10 µM, 24 h, then colonies in drug-free medium. On the procedure: Cell survival after treatment was determined by clonogenic assay. AA8 and UV4 cells were seeded in 6 cm Petri dishes 4 h prior to treatment for 24 h. After that, drugs were removed and cells were allowed to form colonies for eight days. The colonies were then stained with 0.4% methylene blue in methanol for 15 min. Surviving colonies made up of more than 50 cells per colony were counted. Results were represented as percentage of survival referred to untreated cells.

The subject of data set [3] is AA8 cells (NER proficient). The experiment in a line: MTT cell viability assay, AA8 cells. As to conditions: then 48 h in drug-free medium, read-out: IC50 (mean ± SEM), AA8 cells. It counts as cell-based, Chinese hamster. How it is done: as §1
(§4) In the case of the MTT assay, this technique detects viable cells using the ability of these cells to reduce the yellow tetrazolium MTT to an insoluble colored formazan product. Subsequently, this product was solubilized and analyzed by spectrophotometry. Dead cells cannot reduce the MTT into the colored formazan product. Briefly, 24 h after plating, cells were treated with the tested compounds for 48 h; except in experiments with DNA repair-proficient and -deficient cell lines, in which cells were only exposed for 24 h to drugs and allowed to grow for an additional 48 h in drug-free medium to allow them to repair possible DNA damage induced by the tested drugs. […] Finally, plates were incubated overnight at 37 °C and optical densities were measured at 540 nm using an absorbance spectrophotometer microplate reader.
(§5) In both assays, cell viability was expressed as percentage compared to untreated cells. Results were expressed as the means ± standard error of the mean (SEM). […]
A general note: Tetrazolium assays rely on reduction of a dye to a coloured formazan, in cell work by metabolically active cells.

Data set [4] concerns HepG2 (Human hepatocellular carcinoma cells). The experiment in a line: Resazurin cell viability assay, HepG2. Particulars: 72 h, read-out: IC50 (Mean ± SEM, µM), HepG2. It counts as cell-based. How it is done: as §1, §2, §3
Data set [5] deals with BJ-RASV12 (HRASV12-transformed BJ-SV40T cells). The experiment in a line: Resazurin cell viability assay, BJ-RASV12. Type of data set: cell-based, human. Particulars: 72 h. How it is done: as §1, §2, §3
For orientation: The colour change of resazurin is a common sign of viable cells or microbes.

For data set [6], the system named is A549 cells. It counts as cell-based. Particulars: A549, 48 h, antioxidant added 1 h before; MTT. On the procedure: as §1
In the case of the MTT assay, this technique detects viable cells using the ability of these cells to reduce the yellow tetrazolium MTT to an insoluble colored formazan product. Subsequently, this product was solubilized and analyzed by spectrophotometry. Dead cells cannot reduce the MTT into the colored formazan product. Briefly, 24 h after plating, cells were treated with the tested compounds for 48 h; except in experiments with DNA repair-proficient and -deficient cell lines, in which cells were only exposed for 24 h to drugs and allowed to grow for an additional 48 h in drug-free medium to allow them to repair possible DNA damage induced by the tested drugs. After the treatment period, the medium was removed, the cells were washed once with PBS and 125 μL MTT (1 mg/mL in medium) was added to each well. Plates were incubated for 2–4 h and then 80 μL 20% SDS in 0.02 M HCl was added to each well. Finally, plates were incubated overnight at 37 °C and optical densities were measured at 540 nm using an absorbance spectrophotometer microplate reader.
as §3

Data set [7] relates to cancer cell lines versus MRC-5 and VH10 normal cell lines. Briefly: Resazurin assay, panel of cancer cells versus normal cells. Type of data set: cell-based, human. How it is done:
as §1, §2, §3
Next, we evaluated the cytotoxic activity of AzGalp in cancer cell lines derived from solid tumors (HeLa, PC3, U2OS, HepG2 and SW480) and from hematological malignancies (NB4 and HL-60). To study the selectivity against cancer cells, MRC-5 and VH10 cells were used as normal cell lines; 5-FU was used as a positive control. All cells were treated with AzGalp or 5-FU for 72 h and cell viability was evaluated with the resazurin assay. This assay was used to determine cell viability instead of the MTT assay because the HL60 and NB4 cell lines grow in suspension. […] Leukemia cell lines were approximately 15 times more sensitive than normal cells to the cytotoxicity of our aziridine.

The subject of data set [8] is UV4 cells (mutated in ERCC1, NER deficient). The experiment in a line: MTT cell viability assay, UV4 cells. It counts as cell-based, Chinese hamster. How it is done: as §1, §4, §5
Data set [9] concerns UV5 cells (mutated in ERCC2 (XPD), NER deficient). The experiment in a line: MTT cell viability assay, UV5 cells. Type of data set: cell-based, Chinese hamster. Particulars: Cricetulus griseus, 24 h exposure, then 48 h in drug-free medium, read-out: IC50 (means ± SEM), UV5 cells. On the procedure:
as §1, §4, §5

Data set [10] concerns NB4 (Human acute promyelocytic leukemia cells). The experiment in a line: Resazurin cell viability assay, NB4. It counts as cell-based. Particulars: 72 h, read-out: IC50 (Mean ± SEM, µM), NB4. How it is done:
as §1, §2, §3

The subject of data set [11] is SW480 (Human colon adenocarcinoma cells). Briefly: Resazurin cell viability assay, SW480. Type of data set: cell-based. Particulars: 72 h, read-out: IC50 (Mean ± SEM, µM), SW480. How it is done:
as §1, §2, §3

Data set [12] has as its system BJ-SV40T (SV40T-transformed BJ-hTERT cells). The experiment in a line: Resazurin cell viability assay, BJ-SV40T. Particulars: Homo sapiens, 72 h, read-out: IC50 (Mean ± SEM, µM), BJ-SV40T. It counts as cell-based. On the procedure:
as §1, §2, §3

The test system of data set [13] is A549 human lung cancer cell line and MRC-5 human lung normal cell line. Further details: method as in PMID 24177365. Particulars: MTT assay; cited from earlier work.
The subject of data set [14] is A549 lung cancer cells. Briefly: MTT cytotoxicity of combinations, A549. Particulars: 48 h. Type of data set: cell-based. On the procedure: as §1, §4, §5

Usually IC50 stands for the midpoint of a concentration-inhibition curve. On to `Cc1ccc(S(=O)(=O)N2CC2(C)CO[C@@H]2O[C@@H]3CO[C@H](c4ccccc4)O[C@@H]3[C@H](OCc3ccccc3)[C@H]2OCc2ccccc2)cc1` (stereo partly drawn) [AzGalp, 2-methyl-2,3-[N-(4-methylbenzenesulfonyl)imino]propyl 2,3-di-O-benzyl-4,6-O-(S)-benzylidene-β-D-galactopyranoside], for which the IC50 in data set [1] was found to be 11.1 ± 0.9 µM; in data set [3] (24 h exposure), 319 ± 77.2 µM; in [3] (Cricetulus griseus, CHO-AA8, 24 h exposure), 397 ± 142 µM; in data set [4], 122 ± 12.4 µM; in data set [5] (Homo sapiens, resazurin assay, read-out: IC50 (Mean ± SEM, µM), BJ-RASV12), 76.3 ± 17.8 µM; in data set [8] (Cricetulus griseus, UV4, 24 h exposure, then 48 h in drug-free medium, read-out: IC50 (means ± SEM), UV4 cells) it was 58.6 ± 9.3 µM. The IC50 came to 38.6 ± 6.3 µM in data set [9], 21.4 ± 9.9 µM in data set [10], 388 ± 30.9 µM in [11] and 143 ± 8.1 µM in data set [12]. The “Cell survival, UV4 versus AA8 (clonogenic assay)” value in data set [2] was “UV4 cells were more sensitive”. Moreover, the “Sensitivity of BJ-RASV12 malignant cells relative to BJ-hTERT non-malignant cells” value in [5] (resazurin) is given as “three times more sensitive”. Besides, in [6], the “Effect of MnTMPyP on cytotoxicity” value is reported as “Neither MnTMPyP nor catalase prevented the cytotoxicity”. Besides, the “Effect of NAC on cytotoxicity” value in [6] was “slightly prevented cytotoxic activity, it was not statistically significant”. Moreover, in [6], the “Effect of catalase on cytotoxicity” value is reported as “Neither MnTMPyP nor catalase prevented the cytotoxicity”. In addition, the “Viability of leukemia cells” value in data set [7] (HL60 and NB4, concentrations between 10 and 100 µM, 72 h) was determined as 5%. Moreover, the “Viability of normal cells” value in [7] (MRC-5 and VH10, concentrations between 10 and 100 µM, 72 h) is on record as “did not alter the viability of normal cells”. Also, in [7] (NB4 and HL-60 versus MRC-5 and VH10, 72 h), the “Sensitivity of leukemia cell lines relative to normal cells” value is given as “approximately 15 times”. Besides, the “Cytotoxicity against HepG2 and U2OS relative to normal cell lines” value in [7] (versus MRC-5 and VH10, 72 h) was “approximately 2.5 times”. The “Sensitivity of NER-deficient cells relative to NER-proficient cells” value in data set [8] (UV4 and UV5 versus AA8) is on record as “approximately six times more sensitive”. The “Cytotoxicity against A549 lung cancer cells relative to MRC-5 lung normal cells” value in data set [13] is given as “approximately six times more cytotoxic”. Besides, in [14] (100 μM AzGalp + 10 μM 5-FU), the “Cytotoxicity of combination with 5-FU, cancer cells” value is reported as “killed more cancer cells than when these drugs were administered individually”. In data set [14] (100 μM AzGalp + 10 μM oxaliplatin), the “Cytotoxicity of combination with oxaliplatin, cancer cells” value was “killed more cancer cells than when these drugs were administered individually”.
